Here are results for six molecules from paper PMC9330653, “Targeting the Ubiquinol-Reduction (Qi) Site of the Mitochondrial Cytochrome bc1 Complex for the Development of Next Generation Quinolone Antimalarials” (Biology, 2022).

Converted amounts (≈) assume the structure as drawn. Where only a bound is given, the exact number is not on record here.

In the first data set the test system is Plasmodium falciparum 3D7.
Assay: not given
The conditions noted are these: drug sensitive P. falciparum 3D7 whole cells; cited from earlier work.
As to `COc1cc2[nH]c(C)c(-c3ccc(Oc4ccc(OC(F)(F)F)cc4)cc3)c(=O)c2cc1Cl` [ELQ300], the concentration for half-maximal inhibition (IC50) (usually the point on the concentration scale where inhibition reaches its midpoint) was 2.2 nM.

For the molecule `Cc1[nH]c(CO)c(-c2ccc(Oc3ccc(OC(F)(F)F)cc3)cc2)c(=O)c1Cl` [GSK932121], the IC50 is 6 nM.

Regarding `Cc1[nH]c(C)c(-c2ccc(Oc3ccc(OC(F)(F)F)cc3)cc2)c(=O)c1Cl` [GW844520], the half-inhibitory concentration (IC50) was 5 nM.

With `Cc1c(-c2ccc(Cc3ccc(OC(F)(F)F)cc3)cc2)n(O)c2ccccc2c1=O` [RKA066], the half-maximal inhibitory concentration (IC50) is 22 ± 0.4 nM.

As to `COc1ccc2c(=O)c(C)c(-c3cncc(-c4ccc(OC(F)(F)F)cc4)c3)[nH]c2c1` [SCR0911], the IC50 was 12 ± 3 nM.

`Cc1[nH]c2ccccc2c(=O)c1-c1ccc(Cc2ccc(OC(F)(F)F)cc2)cc1` [WDH-1U-4]: the IC50 was 36 ± 6 nM.

The test system of a further data set is Plasmodium falciparum TM90C2B.
Assay: not given
Particulars: atovaquone resistant parasite TM90C2B; cited from earlier work.
As to `COc1cc2[nH]c(C)c(-c3ccc(Oc4ccc(OC(F)(F)F)cc4)cc3)c(=O)c2cc1Cl` [ELQ300], the IC50 is 1.7 nM.

In the case of `Cc1c(-c2ccc(Cc3ccc(OC(F)(F)F)cc3)cc2)n(O)c2ccccc2c1=O` [RKA066], the 50% inhibitory concentration (IC50) is 217 ± 18 nM and the “IC50 (nM) (TM90C2B)” value is recorded as “triple-digit nanomolar”.

Consider `COc1ccc2c(=O)c(C)c(-c3cncc(-c4ccc(OC(F)(F)F)cc4)c3)[nH]c2c1` [SCR0911], for which the IC50 is 7.2 nM.

For `Cc1[nH]c2ccccc2c(=O)c1-c1ccc(Cc2ccc(OC(F)(F)F)cc2)cc1` [WDH-1U-4], the 50% inhibitory concentration (IC50) was 5 ± 2 nM.

The next data set relates to Plasmodium falciparum FCR3A strain.
Assay: not given
The conditions noted are these: FCR3A strain used as atovaquone-resistant parasite (footnote †); read-out: IC50 (nM) (TM90C2B); cited from earlier work. Also on record: method as in PMID 23234553.
Regarding `Cc1[nH]c(CO)c(-c2ccc(Oc3ccc(OC(F)(F)F)cc3)cc2)c(=O)c1Cl` [GSK932121], the IC50 is 6 nM.

Take `Cc1[nH]c(C)c(-c2ccc(Oc3ccc(OC(F)(F)F)cc3)cc2)c(=O)c1Cl` [GW844520]: the IC50 was 2 nM.

System in a further data set: not given
Assay: not given
Also on record: method as in doi:10.1039/C5MD00062A. Particulars: at pH 1; cited from earlier work.
With `COc1cc2[nH]c(C)c(-c3ccc(Oc4ccc(OC(F)(F)F)cc4)cc3)c(=O)c2cc1Cl` [ELQ300], the aqueous solubility (commonly the dissolved amount per volume that the medium holds) is < 1 µM.

Consider `COc1ccc2c(=O)c(C)c(-c3cncc(-c4ccc(OC(F)(F)F)cc4)c3)[nH]c2c1` [SCR0911], for which the aqueous solubility was 7.8 µM (≈ 3.33 µg/mL).

For another data set, the target named is T1, Pfbc1 (P. falciparum cytochrome bc1) (Plasmodium falciparum, UniProt Q02768).
T1 sequence (Q02768 1-376): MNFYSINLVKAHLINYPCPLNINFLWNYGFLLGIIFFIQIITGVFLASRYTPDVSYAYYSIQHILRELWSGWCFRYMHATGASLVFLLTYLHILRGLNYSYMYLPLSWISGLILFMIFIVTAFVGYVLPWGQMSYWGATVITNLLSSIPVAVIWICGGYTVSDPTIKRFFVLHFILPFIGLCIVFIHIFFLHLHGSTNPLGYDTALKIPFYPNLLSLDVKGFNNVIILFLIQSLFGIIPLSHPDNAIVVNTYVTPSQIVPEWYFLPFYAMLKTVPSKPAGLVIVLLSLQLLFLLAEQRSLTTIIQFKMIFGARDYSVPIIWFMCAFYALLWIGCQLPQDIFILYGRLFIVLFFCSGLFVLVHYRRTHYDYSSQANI
The experiment in a line: Pf cytochrome bc1 enzyme inhibition. The format is biochemical. Particulars: at 100 nM; single point concentration only, full IC50 not available; measured in this work. From the text: Table 1 Inhibition profiles of selected antimalarial compounds against whole cells of Plasmodium falciparum (Pf) (3D7 and TM90C2B strains) and individual mitochondrial enzymes. | column: IC50 (nM) (Pfbc1) *
Consider `COc1ccc2c(=O)c(C)c(-c3cncc(-c4ccc(OC(F)(F)F)cc4)c3)[nH]c2c1` [SCR0911], for which at 0.1 µM the inhibition was 80%.

In another data set the target is T1, Pfbc1 (P. falciparum cytochrome bc1).
Assay: not given
The conditions noted are these: cited from earlier work.
Take `COc1cc2[nH]c(C)c(-c3ccc(Oc4ccc(OC(F)(F)F)cc4)cc3)c(=O)c2cc1Cl` [ELQ300]: the IC50 is 0.56 nM.

With `Cc1[nH]c(CO)c(-c2ccc(Oc3ccc(OC(F)(F)F)cc3)cc2)c(=O)c1Cl` [GSK932121], the IC50 is 7 nM.

`Cc1[nH]c(C)c(-c2ccc(Oc3ccc(OC(F)(F)F)cc3)cc2)c(=O)c1Cl` [GW844520]: the IC50 is 2 nM.

For `Cc1c(-c2ccc(Cc3ccc(OC(F)(F)F)cc3)cc2)n(O)c2ccccc2c1=O` [RKA066], the IC50 is 28 nM.

Consider `Cc1[nH]c2ccccc2c(=O)c1-c1ccc(Cc2ccc(OC(F)(F)F)cc2)cc1` [WDH-1U-4], for which the half-maximal inhibitory concentration (IC50) is < 10 nM.

The next data set addresses T2, bovine cytochrome bc1 (Bos taurus, UniProt P00157).
T2 construct: Crude mitochondria were isolated from fresh bovine hearts; from tissue; host or cells: bovine heart mitochondria
Kind of data set: Bovine cytochrome bc1 activity assay. In kind it is biochemical. Particulars: at 0.1 µM; triplicate. The procedure: Cytochrome bc1 was purified from mitochondria, as previously described. Crude mitochondria were isolated from fresh bovine hearts and solubilized with the addition of dodecyl-maltoside (DDM). The solubilized protein was loaded onto a 50 mL DEAE Sepharose CL6B (GE Healthcare, Uppsala, Sweden) column pre-equilibrated in and washed with three column volumes of 50 mM KPi pH 7.5, 250 mM NaCl, 0.5 mM EDTA, and 0.01% DDM. The bound protein was eluted along a linear gradient from 250 to 500 mM NaCl. Cytochrome bc1 fractions were pooled and concentrated in a centrifugal ultrafilter (MWCO. 100 kDa) and loaded onto a 120 mL Sephacryl S300 column (GE Healthcare, Uppsala, Sweden) equilibrated in and eluted at a flow rate of 0.5 mL/min with 20 mM KMOPS pH 7.2, 100 mM NaCl, 0.5 mM EDTA, 0.01% DDM. Cytochrome bc1 fractions were pooled and concentrated to 40 mg/mL. PEG fractionation with an increasing amount of PEG4000 was used to precipitate cytochrome bc1. […] The inhibitors were dissolved in DMSO at the concentration of 50 mM and 5 μM cytochrome bc1 was incubated with 50 μM inhibitor (10-fold molar excess) at 4 °C for 12 h.
The inhibitors were added to the assay without prior incubation. The reaction was initiated by the addition of 50 μM decylubiquinol (Sigma-Aldrich, St. Louis, MO, USA).
With `COc1cc2[nH]c(C)c(-c3ccc(Oc4ccc(OC(F)(F)F)cc4)cc3)c(=O)c2cc1Cl` [ELQ300], 0.1 µM produced 22 ± 5% inhibition.

As to `Cc1[nH]c(CO)c(-c2ccc(Oc3ccc(OC(F)(F)F)cc3)cc2)c(=O)c1Cl` [GSK932121], the inhibition (usually the drop in the measured response relative to a control, in per cent) at 0.1 µM was found to be 65 ± 4%.

The molecule `Cc1[nH]c(C)c(-c2ccc(Oc3ccc(OC(F)(F)F)cc3)cc2)c(=O)c1Cl` [GW844520] yielded an inhibition at 0.1 µM of 59 ± 6%.

The molecule `Cc1c(-c2ccc(Cc3ccc(OC(F)(F)F)cc3)cc2)n(O)c2ccccc2c1=O` [RKA066] came in with an inhibition at 0.1 µM of 81 ± 4%.

On to `COc1ccc2c(=O)c(C)c(-c3cncc(-c4ccc(OC(F)(F)F)cc4)c3)[nH]c2c1` [SCR0911], for which the inhibition at 0.1 µM came out at 9 ± 2%.

`Cc1[nH]c2ccccc2c(=O)c1-c1ccc(Cc2ccc(OC(F)(F)F)cc2)cc1` [WDH-1U-4] registered an inhibition at 0.1 µM of 7 ± 1%.

Still in this data set, the particulars now being: at 1 µM; triplicate.
`COc1cc2[nH]c(C)c(-c3ccc(Oc4ccc(OC(F)(F)F)cc4)cc3)c(=O)c2cc1Cl` [ELQ300]: the inhibition at 1 µM worked out at 51 ± 7%.

Consider `Cc1[nH]c(CO)c(-c2ccc(Oc3ccc(OC(F)(F)F)cc3)cc2)c(=O)c1Cl` [GSK932121], for which the inhibition at 1 µM was determined as 82 ± 5%.

Turning to `Cc1[nH]c(C)c(-c2ccc(Oc3ccc(OC(F)(F)F)cc3)cc2)c(=O)c1Cl` [GW844520], testing at 1 µM gave an inhibition of 79 ± 3%.

`Cc1c(-c2ccc(Cc3ccc(OC(F)(F)F)cc3)cc2)n(O)c2ccccc2c1=O` [RKA066] yielded an inhibition at 1 µM of 93 ± 2%.

`COc1ccc2c(=O)c(C)c(-c3cncc(-c4ccc(OC(F)(F)F)cc4)c3)[nH]c2c1` [SCR0911] showed an inhibition at 1 µM of 72 ± 5%.

For `Cc1[nH]c2ccccc2c(=O)c1-c1ccc(Cc2ccc(OC(F)(F)F)cc2)cc1` [WDH-1U-4], the inhibition at 1 µM turned out to be 61 ± 3%.

The target of a further data set is PfNDH2 (P. falciparum mitochondrial type II NADH: ubiquinone oxidoreductase).
Assay: not given
The conditions noted are these: cited from earlier work.
For the molecule `Cc1c(-c2ccc(Cc3ccc(OC(F)(F)F)cc3)cc2)n(O)c2ccccc2c1=O` [RKA066], the half-maximal inhibitory concentration (IC50) was 55 nM.

For `Cc1[nH]c2ccccc2c(=O)c1-c1ccc(Cc2ccc(OC(F)(F)F)cc2)cc1` [WDH-1U-4], the 50% inhibitory concentration (IC50) is 492 nM.

Still in this data set, the particulars now being: single point concentration only, full IC50 not available; cited from earlier work.
Turning to `Cc1[nH]c(CO)c(-c2ccc(Oc3ccc(OC(F)(F)F)cc3)cc2)c(=O)c1Cl` [GSK932121], the IC50 was > 10000 nM.

As to `Cc1[nH]c(C)c(-c2ccc(Oc3ccc(OC(F)(F)F)cc3)cc2)c(=O)c1Cl` [GW844520], the IC50 is > 10000 nM.

`COc1ccc2c(=O)c(C)c(-c3cncc(-c4ccc(OC(F)(F)F)cc4)c3)[nH]c2c1` [SCR0911]: the half-inhibitory concentration (IC50) was > 1000 nM.
